# Measurements as given in patent publication US7563771B2, “Synthetic single domain polypeptides mimicking apolipoprotein E” (UAB Research Foundation, priority 2002, dated 2009).
# Peptide text beside a SMILES is read from it.
# Experiments:
# [1] = Solubility of peptide and peptide:DMPC complexes
# [2] = Toxicity of intravenously administered peptide to mice; type: in vivo; settings: 100 μg/mouse; for toxicity to mice, in words: intravenously
# [3] = test system: LDL from LDL-R null mice; experiment: Association of 125I-labelled peptide with plasma lipoproteins (CLiP profile, radioactivity of fractions); type: binding, LDL-R null mouse
# Method: Peptide [^125I]Ac-(R)18L-NH2 was mixed with plasma from an LDL-R null mouse at a proportion of 100 μg peptide:1 mL plasma. The plasma lipoprotein profile was determined using the CLiP method (Garber and Anantharamaiah, J. Lipid. Res., 2000), and fractions were collected for measurement of radioactivity. Thus, peptide:lipid complexes are good candidates for administration that would result in enhanced uptake of atherogenic lipoproteins. The effect of the single domain peptide of the invention should last longer than any dual domain peptide since lipid-associated peptide is helical and the backbone is not accessible for proteolytic cleavage (degradation). Thus, several slow-release formulations of peptides with lipids are tested to determine the optimal formulation for delivery.
# [4] = test system: HepG2 cells; experiment: Uptake of 125I-LDL and 125I-VLDL by HepG2 cells in presence of peptide; type: cell-based
# Method: These experiments were performed to test the bioactivity of the R-18L peptide in cell culture. […] Specifically, ^125I-LDL and ^125I-VLDL and the R-18L peptide were incubated with HepG2 cells in vitro for 2 hours to determine the cellular uptake of the iodinated compounds. […] H/H represent uptake of the lipoproteins in cells treated with heparinase/heparitinase. […] In case of VLDL, the peptide-mediated uptake appeared to be predominantly via an HSPG pathway. […] Examples of atherogenic lipoproteins are VLDL and LDL.
# This experiment was carried out to follow the events subsequent to the binding of atherogenic lipoproteins to cultured cells. HepG2 cells (obtained from American Type Culture Collection (ATCC), Manassas, Va.) are used for determining peptide-mediated enhanced uptake of LDL or VLDL. Cells are grown in DMEM in six-well plates and used at 75% to 90% confluence. The seeding density of the cells that is used is 1.5-3.0×10^5 cells/ml. Cells are treated with DMEM containing lipoprotein-deficient serum (LPDS) 24 h prior to use to upregulate […] with the indicated concentration (0 to 50 μg of ^125I-LDL) at 4° C. for 2 h in presence or absence of peptides. Nonspecific binding is assessed in the presence of 50-fold excess of unlabelled LDL with or without peptides. After washing with ice-cold PBS, (containing 2 mg/ml BSA) to remove excess labeled lipoproteins, cells are incubated with excess dextran sulfate (4 mg/ml Pharmacia, Mr of 500,000) or heparin (Sigma Chemical Co., St. Louis, Mo., 10 mg/ml) for 1 h to release specifically bound ^125I-LDL. The counts in the dextran sulfate wash reflect the amount of LDL bound to cells. Cells are then washed with PBS and then dissolved in 0.1 N NaOH and a 0.5 ml aliquot of the cells suspension is counted. The counts reflect the amount of LDL internalized. The amount of protein is estimated using the Lowry method. Degradation of LDL is assessed by precipitating ^125I-LDL using 17% […] acid and incubating at 4° C. for 30 min. The precipitate is removed by centrifugation. The supernatant is treated with 10 μl of 40% KI and 40 μl of 10% hydrogen peroxide. The free ^125I is extracted with 2 ml chloroform. The upper aqueous layer is then counted for radioactivity. These counts represent the amount of monoiodi-tyrosine produced by the degradation of apo B in lipoproteins. Cell surface HSPG is removed by treating cells with heparinase and heparitinase (Sigma Chemical Co., St. Louis, Mo.) at a concentration of 3 u/ml of medium for 2 h at 37° C. In all cell experiments an average value of triplicate experiments are considered. Counts are detected inside the cultured cells and it is shown that LDL and VLDL are bound, internalized and degraded in the cultured cells in the presence of the peptide of the invention.
# [5] = test system: plasma cholesterol; experiment: Plasma cholesterol in dyslipidemic mouse models; type: in vivo; settings: several dyslipidemic mouse models, dose-dependent manner
# Method: These studies were carried out to assess the bioactivity of the single domain R-18L peptides in vivo and compare its activity with the known activity of a dual domain Apo-E derived peptide. In this case, the bioactivity refers to the activity of lowering serum cholesterol in a subject (e.g., in a transgenic mouse). In this example, the 18L peptide analogs were administered to dyslipidemic mice.
# [6] = test system: plasma cholesterol; experiment: Plasma cholesterol after intravenous injection into fasted apo E null mice; type: in vivo
# Method: The peptides were dissolved in PBS pH=5.0. Control mice (n=5) received PBS pH=5.0. Data shown represent mean±SEM.
# Effects on cholesterol levels of peptide Ac-(R)14L-NH2 analog 2 (at 100 μg/mouse), administered intravenously into fasted apo E null mice as free peptide or as peptide:DMPC complexes at two pH levels. n=5 in all cases is shown in FIG. 11. Peptides were dissolved in PBS at the pH shown. Data shown represent mean±SEM.
# Blood samples were taken immediately before injection and at 2 minutes and at 5 hours after injection and measured for cholesterol. A control of only PBS was also measured. Total cholesterol in the blood samples was measured, and is expressed in FIG. 4 as mean±SEM. […] However, the reduction in plasma cholesterol was in the lipoproteins, including HDL. […] Feces were collected for 24 hours following injection of 100 μg of Ac-(R)18L-NH2:DMPC complexes (n=2) or PBS (n=5). Fecal sterols were extracted, and total cholesterol was determined manually (Sigma Infinity). […] Total feces were collected from individually-caged mice for 24 hours following intravenous injection of Ac-(R)18L-NH2 into apo E null mice at a dose of 100 μg/mouse. Total 24-hour fecal cholesterol was then calculated. Feces from each mouse were weighed, lyophilized, and then re-weighed. 100 mg dried feces was then homogenized, and total lipids were extracted. The dried extract was resuspended in isopropanol, and cholesterol was measured manually. Data shown in FIG. 6 are mean±SEM for control and mean±range for peptide.
# This experiment is carried out to show the usefulness of the peptides of the invention in vivo for lowering serum cholesterol. Peptide or peptide-lipid complexes were administered intravenously to mice. After some time period (as specifically shown in various figures), plasma samples were obtained by performing a retro-orbital bleed of the animals. The samples were analyzed by the column lipoprotein profile as previously described (Garber, D. et al. J. Lipid Res. 2000, 41:1020-1026). Briefly, 5 to 10 μl of the plasma was analyzed using a single superose (Pharmacia, Piscataway, N.J.) column. Immediately following the column run, cholesterol reagent is introduced through a mixing tee, and the eluent:reagent mixture enters a post column reaction coil. Cholesterol content of the reaction mixture is determined at 500 nm spectrophotometrically and the data points are collected into a computer. The resulting profiles are decomposed into component peaks and analyzed for relative area using PeakFit® computer software (SPSS Science, Chicago, Ill.). Absolute cholesterol value for total cholesterol is determined by comparisons with control samples of known values. The results would show a decrease in serum cholesterol in the subjects that received the polypeptides of the invention.
# [7] = test system: erythrocytes; experiment: Hemolysis of erythrocytes (hemoglobin content of supernatant, absorbance at 540 nm); type: cell-based
# Method: This example was performed to test the affect of amino acid residue changes on the lytic nature of peptides of the invention. Lysine residues, which resided on the polar face of the single domain peptide, were substituted with arginine and such altered peptides were tested for lytic ability. Similarly, in other peptides of the invention, lysine residues on the polar face of the single domain peptide of the invention were dimethylated. These altered peptides neutralized the hemolytic property of the 18 L peptide. A suspension of erythrocytes (10^6 cells/ml) in phosphate-buffered saline with and without peptide (10 ml of […] peptide solution) was incubated for 10 min at 37° C. Hemolysis was expressed as hemoglobin content (absorbance at 540 nm) of the supernatant after centrifugation at 16,000×g for 3 min. Hemoglobin content as measured in the presence of 0.1% Triton X-100 was taken as 100% hemolysis.
molecule,measurement,setting,value
CC[C@H](C)[C@H](NC(=O)[C@H](Cc1ccccc1)NC(=O)[C@H](CCCNC(=N)N)NC(=O)[C@H](Cc1c[nH]c2ccccc12)NC(=O)[C@@H](NC(=O)[C@H](CO)NC(=O)CNC(=O)[C@H](Cc1ccc(O)cc1)NC(=O)[C@H](Cc1ccccc1)NC(=O)[C@H](CCCNC(=N)N)NC(=O)[C@H](CCCNC(=N)N)NC(C)=O)[C@@H](C)CC)C(=O)N[C@@H](CCCNC(=N)N)C(=O)N[C@@H](C)C(=O)N[C@@H](Cc1ccccc1)C(N)=O [Ac-(R)14L-NH2 analog 2] (Ac-RRFYGSIWRFIRAF-NH2),solubility,[1]; pH=5.0,freely soluble
same,solubility,[1]; pH=7.4,only partially soluble
same,effect of DMPC on the suspension,"[1]; pH=7.4, addition of DMPC at a 1:1 ratio (w/w)",completely clarified this suspension
Ac-GIRRFLGSIWRFIRAFYG-NH2 [R-18L],"toxicity to mice, in words",[2],completely normal
same,counts per minute in VLDL peak,"[3]; FIG. 7, elution volume c. 12 mL",~50 CPM
same,counts per minute in LDL peak,"[3]; FIG. 7, elution volume c. 16 mL",~150 CPM
same,counts per minute in HDL peak,"[3]; FIG. 7, elution volume c. 18 mL",~350 CPM
same,uptake of LDL by HepG2 cells,"[4]; 125I-LDL, 2 hours incubation",effective in enhancing the uptake
same,uptake of VLDL by HepG2 cells,"[4]; 125I-VLDL, 2 hours incubation",effective in enhancing the uptake
same,enhanced uptake of VLDL in cells treated with heparinase/heparitinase (H/H),"[4]; HepG2 cells, H/H treated",completely abrogated
same,uptake of LDL in cells treated with heparinase/heparitinase (H/H),"[4]; HepG2 cells, H/H treated",significant enhancement of uptake
same,reducing plasma cholesterol,[5],effective in reducing plasma cholesterol
same,"cholesterol reduction, dose dependency","[6]; 50 μg of peptide per mouse, i.v., 5 hours, limited to VLDL and IDL/LDL fractions (FIG. 5)",substantial reduction
same,reducing plasma cholesterol,"[6]; 50 μg/mouse, i.v., PBS pH=5.0, fasting apo E null mice (FIG. 10)",effective in reducing plasma cholesterol
same,duration of plasma cholesterol reduction,[6]; 100 μg/mouse i.v. (FIG. 4),maintained for at least five hours
same,reduction of plasma cholesterol,"[6]; 100 μg/mouse i.v., within two minutes, versus basal level (FIG. 4)",approximately 90%
same,lowering plasma cholesterol in apo E(−) mice compared with dual domain peptide,[6]; apo E(−) mice,more effectively than the dual domain peptide
"GIKKFLGSIWKFIKAFVG [18L, reference compound]",mice that died,[2],four out of six
same,"toxicity to mice, in words",[2],highly toxic
same,hemolysis (lytic),[7],80%
same,"hemolysis / cell lysis, in words",[7],caused marked hemolysis
GIRRFYGSIWRFIR (Ac-GIRRFYGSIWRFIR-NH2) [Ac-(R)14L-NH2 analog 1],reducing plasma cholesterol,"[6]; free peptide, 100 μg/mouse, i.v., PBS pH=5, fasting apo E null mice (FIG. 10)",not effective
